Four molecules from ChEMBL document CHEMBL1143290, “In vitro anti-inflammatory activity of lignans isolated from Magnolia fargesii” (Bioorg Med Chem Lett, 2009) can be followed below.

For one assay, the system named is BV-2. The experiment in a line: Inhibition of NO production in LPS-stimulated mouse BV2 cells assessed as nitrite accumulation after 20 hrs by Griess reagent method. Format: functional, cell-based. To be noted: BV-2, 20 h. For orientation: Griess reagent forms a coloured azo dye with nitrite.
Assay [1] can be described thus: Inhibition of NOS.

In general, IC50 refers to the concentration needed to halve the response being measured. Regarding `COc1cc([C@H]2OC[C@H]3[C@@H]2CO[C@@H]3c2cc(OC)c(OC)c(OC)c2)cc(OC)c1OC`, the 50% inhibitory concentration (IC50) in the assay on BV-2 worked out at 28.6 µM.

Consider `COc1ccc([C@H]2OC[C@H]3[C@@H]2CO[C@@H]3c2cc(OC)c(OC)c(OC)c2)cc1OC`, for which the 50% inhibitory concentration (IC50) in the assay on BV-2 came to 20.5 µM.

Regarding `COc1ccc([C@H]2OC[C@H]3[C@@H]2CO[C@@H]3c2ccc(OC)c(OC)c2)cc1OC` [(+)-EUDESMIN], the half-maximal inhibitory concentration (IC50) in the assay on BV-2 amounted to 30 µM.

In assay [1], `CNC(=N)NCCC[C@H](N)C(=O)O` [TILARGININE] gave an IC50 of 19.2 µM.
